In article PMC3546861, “HLA-A*0201-restricted CD8^+ T-cell epitopes identified in dengue viruses” (Virology Journal, 2012):
Entries after “also recorded” stand apart in the source; their conditions may differ.

Columns and labels:
[1] = test system: HLA-A*0201 transgenic mice; assay: IFN-γ ELISPOT assay on splenocytes of peptide-immunized mice; assay type: in vivo; details: mice immunized s.c. with peptide 50 μg/mouse in Freund's adjuvant, 5 weekly doses, splenocytes stimulated with cognate peptide 10 μg/ml, 24 h, background subtracted, mean ± SD, 4 mice/group
Description: (§1) HLA-A*0201 transgenic mice were subdivided into 12 groups (4 mice/group). Mice were inoculated subcutaneously with high-affinity peptide (50 μg/mouse) emulsified in Freund’s complete adjuvant. One week later, mice were immunized with the same peptide emulsified in Freund’s incomplete adjuvant. Mice were boosted three more times at weekly intervals. Mock-immunized (adjuvant alone) HLA-A*0201 transgenic mice and peptide-immunized C57BL/6 mice served as controls. One week after the final immunization, all mice were sacrificed and splenocytes extracted. ELISPOT and ICS assays were conducted to detect the frequencies of peptide-specific IFN-γ-producing cells. All animal were performed following the Institutional Animal Care and Use Committee-approved protocols.
Splenocytes were resuspended to a final concentration of 1 × 10^6 cells/ml in RPMI 1640 medium supplemented with 10% fetal bovine serum (FBS). ELISPOT assays were performed in pre-coated 96-well plates (U-CyTech Company, Netherlands). Splenocytes were seeded at 1 × 10^5 cells/well and exposed to either cognate or heterologous peptide at a final concentration of 10 μg/ml. Negative control wells contained splenocytes but no peptide. Positive control wells included cells plus phytohemagglutinin (PHA) at a final concentration of 10 μg/ml. All tests were carried out in duplicate wells, with plates incubated for 24 h at 37°C/5% CO2. Plates were washed and then incubated with biotinylated anti-mouse IFN-γ for 1 h at 37°C. After washing, plates were labeled with streptavidin-horseradish peroxidase, and developed using fresh ACE solution as a substrate. IFN-γ spots were counted using an ELISPOT reader (Beijing SageCreation Science Co. Ltd, Beijing, China). Peptide-specific T-cell frequency was expressed as SFCs/1 × 10^5 splenocytes. Background spots (negative control wells) were subtracted from test wells. A positive response to a peptide was defined as having > 5 SFCs/1 × 10^5 splenocytes after subtraction of the background.

[2] = test system: HLA-A*0201 transgenic mice; assay: ICS assay for CD8+ IFN-γ+ T cells in splenocytes of peptide-immunized mice; assay type: in vivo, mouse; details: for ICS CD8^+IFN-γ^+T cells, proportion in CD8^+ T cells: mice immunized s.c. with peptide 50 μg/mouse in Freund's adjuvant, 5 weekly doses, splenocytes stimulated with cognate peptide 10 μg/ml, 6 h, brefeldin A, CD3+CD8+ gate, mean ± SD, 4 mice/group, SD; for Cross-reactivity of peptide-specific CD8^+ T cells towards heterologous variant peptides: splenocytes of peptide-immunized mice stimulated with heterologous peptide 10 μg/ml, ELISPOT and ICS (Figures 4 and 7), result in words
Description: as §1
Splenocytes were cultured with either cognate peptide (10 μg/ml) or heterologous peptide (10 μg/ml) in a 1.5 ml microcentrifuge tube for 6 h at 37°C/5% CO2. […] During the last 5 h, brefeldin A (10 μg/ml) was added to each tube. After a 6 h incubation, cells were washed and then stained with APC-conjugated anti-mouse CD3 and FITC-conjugated anti-mouse CD8 antibodies (eBioscience company, USA) for 40 min at 4°C. Cells were then washed and fixed with 4% paraformaldehyde for 20 min at 4°C, permeabilized using 0.5% saponin for 10 min at 4 °C, and stained with PE-conjugated anti-mouse IFN-γ antibody (eBioscience company, USA) for 40 min at 4°C. A FACS Calibur flow cytometer (BD Bioscience, USA) was used to analyze labeled cells. CD3^+ CD8^+ T cells were gated and the proportion of IFN-γ-producing CD8^+ T cells (CD8^+ IFN-γ^+ T cells) as a subset of all CD8^+ T cells were determined.

[3] = biological target: HLA-A*0201 molecule of T2 cells (Homo sapiens, UniProt P04439, D140Y/D185E/D98H/E176V/E277Q/G131W/G231S/I119V/I121R/I166T/I218V/L300P/L318F/N151K/N90K/P208A/P217A/Q86G/Q94H/R138H/R169H/T345S); assay: MHC-peptide complex stabilization assay on T2 cells; assay type: binding; parameters: key: FI = (MFI sample − MFI background) / MFI background; details: serum-free RPMI 1640, 1 h 37°C, 12 h 26°C, 3 h 37°C, FITC anti-HLA-A*0201, flow cytometry, FI = (MFI sample - MFI background)/MFI background
Description: Figure 1 The affinity of candidate epitopes for HLA-A*0201 molecules. T2 cells were incubated in RPMI 1640 medium lacking peptides (red) or containing low peptide (1 μg/ml) (green) or intermediate peptide (10 μg/ml) (purple) or high peptide (100 μg/ml) (blue) for 15 h and stained with FITC-conjugated anti-HLA-A*0201 antibody. Then, mean fluorescence intensity (MFI) was measured using flow cytometry.
The ability of peptides to stabilize MHC molecules on the surface of T2 cells was measured as described previously. T2 cells (2 × 10^5 cells/0.5 ml) were incubated in serum-free RPMI 1640 medium in the presence of different concentrations of peptide (1, 10, 100 μg/ml) for 1 h at 37°C/5% CO2 incubator. Cells were then incubated at 26°C for 12 h, and then returned to 37°C for a 3 h incubation. Finally, T2 cells were stained with FITC-conjugated anti-HLA-A*0201 antibody (BD Pharmingen, USA) for 40 min at 4°C. T2 cells incubated in serum-free RPMI 1640 medium without peptides served as a negative control (background). Mean fluorescence intensity (MFI) of T2 cells was recorded with a FACS Calibur flow cytometer (BD bioscience, USA), and results expressed as fluorescence index (FI). The following formula was used to calculate the FI.
(1) FI=MFI sample-MFI background/MFI background

AILTVVAAT [D2V-NS4a140-148, D2V variant peptide of D1V-NS4a140-148, nonapeptide …]
ELISPOT IFN-γ spot-forming cells [1]: 10 ± 3 SFCs/1×10^5cells
ICS CD8^+IFN-γ^+T cells, proportion in CD8^+ T cells [2]: 0.12 ± 0.05%
FI (fluorescence index) ([3]; peptide 1 μg (1 μg/ml)): 0.1
FI (fluorescence index) ([3]; peptide 10 μg (10 μg/ml)): 0.2
FI (fluorescence index) ([3]; peptide 100 μg (100 μg/ml)): 1.2

AMVLSIVSL [D1V-NS2a169-177]
FI (fluorescence index) ([3]; peptide 1 μg (1 μg/ml)): 0.03
FI (fluorescence index) ([3]; peptide 10 μg (10 μg/ml)): 0.05
FI (fluorescence index) ([3]; peptide 100 μg (100 μg/ml)): 0.04

GILTLAAIV [D3V-NS4a140-148, D3V variant peptide of D1V-NS4a140-148, nonapeptide …]
ELISPOT IFN-γ spot-forming cells [1]: 37 ± 6 SFCs/1×10^5cells
ICS CD8^+IFN-γ^+T cells, proportion in CD8^+ T cells [2]: 0.37 ± 0.08%
FI (fluorescence index) ([3]; peptide 1 μg (1 μg/ml)): 0.1
FI (fluorescence index) ([3]; peptide 10 μg (10 μg/ml)): 0.15

LLMRTSWAL [D3V-NS4b182-190, D3V variant peptide of D1V-NS4b183-191, nonapeptide …]
ELISPOT IFN-γ spot-forming cells [1]: 24 ± 5 SFCs/1×10^5cells
ICS CD8^+IFN-γ^+T cells, proportion in CD8^+ T cells [2]: 0.27 ± 0.07%
Cross-reactivity of peptide-specific CD8^+ T cells towards heterologous variant peptides [2]: cross-reacted with each other
FI (fluorescence index) ([3]; peptide 1 μg (1 μg/ml)): 0.22
FI (fluorescence index) ([3]; peptide 10 μg (10 μg/ml)): 0.65
FI (fluorescence index) ([3]; peptide 100 μg (100 μg/ml)): 3.6
FI (fluorescence index) ([3]; peptide 100 μg (100 μg/ml), listed as D3V-NS4b182–190): > 1

LLMRTTWAF [D4V-NS4b179-187, D4V variant peptide of D1V-NS4b183-191, nonapeptide …]
ELISPOT IFN-γ spot-forming cells [1]: 22±4 SFCs/1×10^5cells
ICS CD8^+IFN-γ^+T cells, proportion in CD8^+ T cells [2]: 0.16 ± 0.06%
Cross-reactivity of peptide-specific CD8^+ T cells towards heterologous variant peptides [2]: cross-reacted with each other
FI (fluorescence index) ([3]; peptide 1 μg (1 μg/ml)): 0.2
FI (fluorescence index) ([3]; peptide 10 μg (10 μg/ml)): 0.59
FI (fluorescence index) ([3]; peptide 100 μg (100 μg/ml)): 4.4
FI (fluorescence index) ([3]; peptide 100 μg (100 μg/ml), listed as D4V-NS4b179–187): > 4

LLMRTTWAL [D1V-NS4b183-191]
ELISPOT IFN-γ spot-forming cells [1]: 42 ± 7 SFCs/1×10^5cells
ICS CD8^+IFN-γ^+T cells, proportion in CD8^+ T cells [2]: 0.44 ± 0.09%
Cross-reactivity of peptide-specific CD8^+ T cells towards heterologous variant peptides [2]: marked cross-reactivity; also recorded: cross-reacted with each other
FI (fluorescence index) ([3]; peptide 1 μg (1 μg/ml)): 0.29
FI (fluorescence index) ([3]; peptide 10 μg (10 μg/ml)): 0.4
FI (fluorescence index) ([3]; peptide 100 μg (100 μg/ml)): 1.95
FI (fluorescence index) ([3]; peptide 100 μg (100 μg/ml), listed as D1V-NS4b183–191): exceeds 1

LMMRTTWAL [D2V-NS4b182-190, D2V variant peptide of D1V-NS4b183-191, nonapeptide …]
ELISPOT IFN-γ spot-forming cells [1]: 37 ± 5 SFCs/1×10^5cells
ICS CD8^+IFN-γ^+T cells, proportion in CD8^+ T cells [2]: 0.37 ± 0.09%
Cross-reactivity of peptide-specific CD8^+ T cells towards heterologous variant peptides [2]: cross-reacted with each other
FI (fluorescence index) ([3]; peptide 1 μg (1 μg/ml)): 0.58
FI (fluorescence index) ([3]; peptide 10 μg (10 μg/ml)): 3.42
FI (fluorescence index) ([3]; peptide 100 μg (100 μg/ml)): 4.8
FI (fluorescence index) ([3]; peptide 100 μg (100 μg/ml), listed as D2V-NS4b182–190): > 4

LVMAFMAFL [D1V-C46-54]
FI (fluorescence index) ([3]; peptide 1 μg (1 μg/ml)): 0.01
FI (fluorescence index) ([3]; peptide 10 μg (10 μg/ml)): 0.02
FI (fluorescence index) ([3]; peptide 100 μg (100 μg/ml)): 0.02

MLLALIAVL [D1V-NS4a56-64]
FI (fluorescence index) ([3]; peptide 1 μg (1 μg/ml)): 0.05
FI (fluorescence index) ([3]; peptide 10 μg (10 μg/ml)): 0.05
FI (fluorescence index) ([3]; peptide 100 μg (100 μg/ml)): 0.08

QLAVTIMAI [D2V-NS2a144-152, D2V variant peptide of D1V-NS2a144-152, nonapeptide …]
ELISPOT IFN-γ spot-forming cells [1]: 21±3 SFCs/1×10^5cells
ICS CD8^+IFN-γ^+T cells, proportion in CD8^+ T cells [2]: 0.21 ± 0.05%
FI (fluorescence index) ([3]; peptide 1 μg (1 μg/ml)): 0.24
FI (fluorescence index) ([3]; peptide 10 μg (10 μg/ml)): 0.39
FI (fluorescence index) ([3]; peptide 100 μg (100 μg/ml)): 3.85
FI (fluorescence index) ([3]; peptide 100 μg (100 μg/ml), listed as D2V-NS2a144–152): > 1

QLWAALLSL [D1V-NS2a144-152]
ELISPOT IFN-γ spot-forming cells [1]: 36 ± 6 SFCs/1×10^5cells
ICS CD8^+IFN-γ^+T cells, proportion in CD8^+ T cells [2]: 0.41 ± 0.07%
FI (fluorescence index) ([3]; peptide 1 μg (1 μg/ml)): 0.05
FI (fluorescence index) ([3]; peptide 10 μg (10 μg/ml)): 0.22
FI (fluorescence index) ([3]; peptide 100 μg (100 μg/ml)): 1.12
FI (fluorescence index) ([3]; peptide 100 μg (100 μg/ml), listed as D1V-NS2a144–152): exceeds 1

QLWTALVSL [D3V-NS2a144-152, D3V variant peptide of D1V-NS2a144-152, nonapeptide …]
ELISPOT IFN-γ spot-forming cells [1]: 62 ± 9 SFCs/1×10^5cells
ICS CD8^+IFN-γ^+T cells, proportion in CD8^+ T cells [2]: 0.79 ± 0.15%
FI (fluorescence index) ([3]; peptide 1 μg (1 μg/ml)): 0.2
FI (fluorescence index) ([3]; peptide 10 μg (10 μg/ml)): 0.45
FI (fluorescence index) ([3]; peptide 100 μg (100 μg/ml)): 2.6
FI (fluorescence index) ([3]; peptide 100 μg (100 μg/ml), listed as D3V-NS2a144–152): > 1

QVGTLALSL [D4V-NS2a143-151, D4V variant peptide of D1V-NS2a144-152, nonapeptide …]
ELISPOT IFN-γ spot-forming cells [1]: 12 ± 3 SFCs/1×10^5cells
ICS CD8^+IFN-γ^+T cells, proportion in CD8^+ T cells [2]: 0.13 ± 0.06%
FI (fluorescence index) ([3]; peptide 1 μg (1 μg/ml)): 0.22
FI (fluorescence index) ([3]; peptide 10 μg (10 μg/ml)): 0.2
FI (fluorescence index) ([3]; peptide 100 μg (100 μg/ml)): 0.8

TILTIIGLI [D4V-NS4a140-148, D4V variant peptide of D1V-NS4a140-148, nonapeptide …]
ELISPOT IFN-γ spot-forming cells [1]: 17 ± 5 SFCs/1×10^5cells
ICS CD8^+IFN-γ^+T cells, proportion in CD8^+ T cells [2]: 0.21 ± 0.05%
FI (fluorescence index) ([3]; peptide 1 μg (1 μg/ml)): 0.15
FI (fluorescence index) ([3]; peptide 10 μg (10 μg/ml)): 0.3
FI (fluorescence index) ([3]; peptide 100 μg (100 μg/ml)): 1.08
